Source: US10548894B2, “Combination therapy” (Array BioPharma Inc., priority 2013, dated 2020)

Columns and labels:
Assay type in all cases: cell-based
[1] = tested on: CL-34; assay: 72 hr cell titer Glo proliferation assay, BRAFV600E mutant CRC cell lines; settings: CL-34, single agent
Description: (§1) Single agent and combinatorial effects on proliferation of inhibitors of RAF (Compound of Formula (I)) and PIK3Ca (Compound X) kinases in seven BRAF-mutant CRC-derived cell lines. All cell lines express the BRAFV600E protein. Cells harboring known or putative activating mutations in the PI3Kα gene are marked with a (*) and cells with PTEN loss marked with a (#). Cell proliferation was measured in 72 hr cell titer Glo™ assays and all results supplied are the result of at least triplicate measurements. Shown are single agent IC50 values for the Compound of Formula (I) and Compound X. Synergy score (SS) measurements as well as the combination index (C150) at the 50% effect level are given for each combination) in Table 6. Interactions were deemed synergistic when SS values were ≥2.0 and CI values were ≤0.5. Interactions were deemed additive/synergistic when either SS values were ≥2.0 but CI values were >0.5 or SS values were <2.0 but CI values were ≤0.5. Interactions where termed additive when SS values were <2.0 and CI values were >0.5. Synergy calls are given in the “effect description” columns.

[2] = tested on: COLO 205; assay: as above; settings: Homo sapiens, COLO 205, single agent
Description: as §1

[3] = tested on: HT-29; assay: as above; settings: Homo sapiens, HT-29 (PI3Kα mutation), single agent
Description: as §1

[4] = tested on: LS411N; assay: as above; settings: Homo sapiens, LS-411N, single agent
Description: as §1

[5] = tested on: OUMS-23; assay: as above; settings: OUMS-23 (PTEN loss), single agent
Description: as §1

[6] = tested on: RKO; assay: as above; settings: Homo sapiens, RKO (PI3Kα mutation), single agent
Description: as §1

[7] = tested on: SNU-C5; assay: as above; settings: SNU-C5 (PI3Kα mutation), single agent
Description: as §1

[8] = tested on: SW1417; assay: as above; settings: Homo sapiens, SW1417, single agent
Description: as §1

[9] = tested on: MAPK and PIK3C signaling in COLO 741 cells; assay: Western analysis of phosphorylated MEK1/2, ERK1/2 and AKT; settings: for Phosphorylated levels of AKT: 100 nM
Description: (§2) FIG. 4—The effect on signaling of combining the Compound of Formula (I) with the FGFR inhibitor Compound H and the FGFR ligand FGF2 in two BRAFV600E mutant melanoma-derived cell lines in vitro. Shown is western analysis of both phosphorylated and total AKT, ERK1/2, and MEK1/2 proteins isolated from (A) […] and (B) SK-MEL-5 cells following treatment with the Compound of Formula (I) (100 nM), FGF2 (100 ng/ml), and Compound H (1 uM). Cells were treated for 2 and 24 hours with agents singly and in combination as discussed in Example 5.
(§3) For Western analysis, cells were plated in 6-well (Costar, catalog number 3506) plates at a density of 5×10^5 cells per well in 2.0 ml of complete culture medium. Twelve to 24 hrs after plating, cells were treated with the various compounds, and in all experiments the Compound of Formula (I), Compound H, and FGF2 were used at final concentrations of 100 nM, 1.0 uM, and 100 ng/ml, respectively. Cells were harvested 2, and 24 hrs following the addition of compound in freshly prepared cell lysis buffer (Cell Signaling Technology Catalog number 9803); supplemented with both phosphatase (PhosStop, Roche Catalog number 04906845001) and protease inhibitors (Roche, catalog number 11697498001). Proteins from cell lysates were separated by electrophoresis though a NuPAGE 4-12% Bis-Tis midi gel (Novex, catalog number WG1402BX10), transferred to nitrocellulose membranes, which were subsequently incubated with antibodies from Cell Signaling Technology (Danvers, Mass., USA) recognizing p-AKT (S473, Catalog number 4058), total AKT (Catalog number 2920), p-ERK1/2 (T202/Y204, catalog number 9101), total ERK1/2 (catalog number 9107), p-MEK1/2 (S217/221, catalog number 9121) and β-actin (Ambion, catalog number AM4302). Western blots were visualized following incubation with IRDye 680RD Goat anti-Rabbit IgG (Li-Cor, Catalog number 926-68071) and IRDye 800 CW Goat anti-Mouse IgG (Li-Cor, Catalog number 926-32210) and scanning with an Odyssey Infrared Imager System (Li-Cor, Lincoln, Nebr., USA).
(§4) To investigate whether either restored MAPK or activated PIK3C signaling might underlie FGF2-mediated rescue the effects of FGF2 on MAPK and PIK3C signaling were examined via western-blot analysis of phosphorylated MEK1/2 (MAP2K1/2), ERK1/2 (MAPK1/2) and AKT1/2/3.

[10] = tested on: MAPK and PIK3C signaling in SK-MEL-5 cells; assay: as above
Description: as §2, §3, §4

COC(=O)N[C@@H](C)CNc1nccc(-c2cn(C(C)C)nc2-c2cc(Cl)cc(NS(C)(=O)=O)c2F)n1 [Compound of Formula (I)]
IC50 [1]: 0.03 µM
IC50 [2]: 0.005 µM
IC50 [3]: 0.049 µM
IC50 [4]: 0.018 µM
IC50 [5]: > 2.7 µM
IC50 [6]: 1.97 µM
IC50 [7]: > 2.7 µM
IC50 [8]: 0.235 µM
MAPK signaling (phosphorylated MEK and ERK levels) ([9]; COLO 741, 2 and 24 hours, no FGF2, Formula (I) 100 nM, Compound H 1.0 uM): marked suppression of MAPK signaling
Phosphorylated levels of AKT ([9]; COLO 741, 2 hours): unaffected
Phosphorylated levels of AKT ([9]; COLO 741, 24 hrs): modest decreases
levels of phosphorylated MEK and ERK ([9]; COLO 741, with FGF2 100 ng/ml, 24 hrs): largely, although not completely, restored
changes in signaling relative to Compound of Formula (I) alone ([9]; COLO 741, with FGF2 100 ng/ml, two hours): minimal changes
MAPK signaling (phosphorylated MEK and ERK levels) ([10]; SK-MEL-5, 2 and 24 hours, no FGF2, Formula (I) 100 nM, Compound H 1.0 uM): marked suppression of MAPK signaling
Phosphorylated levels of AKT ([10]; SK-MEL-5, 2 hours, 100 nM): unaffected
levels of phosphorylated MEK and ERK ([10]; SK-MEL-5, with FGF2 100 ng/ml, 24 hrs): largely, although not completely, restored
changes in signaling relative to Compound of Formula (I) alone ([10]; SK-MEL-5, with FGF2 100 ng/ml, two hours): minimal changes
